# Laboratory results from US9301942B2, “Use of icaritin for the preparation of composition for treating cancer” (priority 2013, dated 2016).
# What was measured:
# [1] = test system: patients suffering from advanced solid tumors; assay: Phase Ib fixed-dose study, (serious) adverse events; assay type: in vivo, humans
# Method: (§1) 1.1 Phase 1a: Dose-escalating study with patients suffering from advanced breast cancer. Cohorts of 3-6 patients received one dose, and 6 planned doses of 50, 100, 200, 400, 800, 1600 mg/day were orally administered to the patients over at least a 28-day cycle. 1.2 Phase 1b: Fixed doses of Icaritin with 600 mg and 800 mg BID (Bis in diem) were administered to patients suffering from advanced solid tumors for at least a 28 day cycle. 2. Major Inclusion Criteria
# (§2) Phase Ib: Advanced cancer patients without standard treatment, especially HCC patients with Child-Pugh Class A or B liver function, were selected.
# (§3) Phase Ib: Patients with the following conditions were excluded: ECOG score≧2, ANC≦1500 cells/μL, platelet≦80,000 cells/μL, Hb≦9.0 g/dL, bilirubin>1.5×ULN, AST or ALT>5×ULN, or albumin<2.8 g/dL.
# (§4) The patients with the following conditions were also excluded: prior systemic chemotherapy, chemoembolization, percutaneous ethanol injection, or surgery for HCC<30 days.
# [2] = test system: patients suffering from advanced breast cancer; assay: Phase Ia dose-escalating study, tumor assessment every 28 days; assay type: in vivo, humans
# Method: (§5) The clinical trial includes two phases: Phase I aims to seek the maximum tolerated dose in the patients. Phase II aims to obtain the administration dosage to the patient treatments.
# as §1
# (§6) Phase Ia: Females of age≧18 years old and ≦65 years old, suffering from advanced breast cancer which was not responsive to previous standard treatments, were selected based on Eastern Cooperative Oncology Group (ECOG) score≦1.
# Tumor assessment was performed every 28 days. […] Further, 1 patient completed 9 cycles.
# [3] = Phase Ia pharmacokinetics, plasma concentration before or after meal; assay type: in vivo, humans; conditions: for half-life: female, human, plasma, oral
# Method: as §1
# [4] = test system: patients suffering from advanced breast cancer; assay: Phase Ia dose-escalating study, adverse events; assay type: in vivo; conditions: up to 1600 mg/d
# From the text: “Maximum Tolerated Dose (MTD)” means the highest dose of a radiological or pharmacological treatment that will produce the desired effect without unacceptable toxicity. In the present invention, MTD is one dose level below the cohort in which 2 patients experienced a drug-related dose limited toxicity in cycle 1.
# as §5, §1, §6
# HCC patients = assay: Phase Ib efficacy and survival of HCC patients; assay type: in vivo, humans
# From the text: “CR” means a complete response was achieved after treatment, that is, all signs of cancer in the patient disappeared in response to the treatment.
# “SD” means a stable disease state was seen, that is, at the end of the treatment, the disease state of the patient was little changed from pre-treatment conditions.
# “OS” means overall survival days of patients. Overall survival is an indication of the proportion of people within a group who are expected to be alive after a specified time, taking into account death due to any cause, both related and unrelated to the cancer in question.
# “TTP” means time to progression in the patients, that is, the length of time from the date of diagnosis or the start of treatment for a disease until the disease starts to get worse or spread to other parts of the body. In a clinical trial, measuring the time to progression is one way to see how well a new treatment works.
# as §1, §2, §3, §4
# [5] = 600 mg bid (n = 12), based on evaluable patients, assessment every 2 cycles
# [6] = 800 mg bid (n = 5), based on evaluable patients, assessment every 2 cycles
compound,measurement,setting,value
COc1ccc(-c2oc3c(CC=C(C)C)c(O)cc(O)c3c(=O)c2O)cc1 [Icaritin],G2 drug-related adverse events,[1]; 600 mg and 800 mg BID,no G2 drug-related adverse events was observed
same,"Serious adverse event Cardiac sudden death, No",[1]; dose 600,1
same,"Serious adverse event Cardiac sudden death, outcomes",[1]; dose 600,death
same,"Serious adverse event Cardiac sudden death, relationship",[1]; dose 600,Unlikely related
same,"Serious adverse event Dyspnea, No",[1]; dose 600,2
same,"Serious adverse event Dyspnea, outcomes",[1]; dose 600,Death
same,"Serious adverse event Dyspnea, relationship",[1]; dose 600,Not related
same,"Serious adverse event Liver abscess, No",[1]; dose 600,1
same,"Serious adverse event Liver abscess, outcomes",[1]; dose 600,unresolved
same,"Serious adverse event Liver abscess, relationship",[1]; dose 600,Not related
same,"Serious adverse event epilepsy, No",[1]; dose 600,1
same,"Serious adverse event epilepsy, outcomes",[1]; dose 600,unresolved
same,"Serious adverse event epilepsy, relationship",[1]; dose 600,Not related
same,"Serious adverse event GI bleeding, No",[1]; dose 600/800,2
same,"Serious adverse event GI bleeding, outcomes",[1]; dose 600/800,resolved/death
same,"Serious adverse event GI bleeding, relationship",[1]; dose 600/800,Not related
same,"Serious adverse event Sepsis, No",[1]; dose 800,1
same,"Serious adverse event Sepsis, outcomes",[1]; dose 800,resolved
same,"Serious adverse event Sepsis, relationship",[1]; dose 800,Not related
same,"Serious adverse effect of pneumonia, relationship to drug",[1]; only one observed during study,not considered drug-related
same,Tumor response (CR or PR),"[2]; Phase Ia, 50-1600 mg/day oral, assessment every 28 days",No CR or PR was observed
same,Anti-tumor effect in advanced breast cancer,[2]; overall conclusion,potential anti-tumor effect
same,Plasma concentration after a meal versus fasting,"[3]; 800 mg once daily, FIG. 1",higher
same,Absorption saturation,[3]; 1600 mg,absorption saturation occurs
same,Plasma concentration after a meal versus fasting,"[3]; 1600 mg once daily, FIG. 2",higher
same,Plasma concentration versus dose,"[3]; 400, 800 and 1600 mg once daily after meal, FIG. 3",increases with dose but not in a completely linear pattern
same,"Bioavailability, post-meal (fed) dosing versus fasting dosing",[3]; 800 and 1600 mg,better bioavailability in fed dosing
same,half-life,[3]; 800 mg Icaritin BID,4.8 ± 2.7 h
same,half-life,[3]; 1600 mg Icaritin BID,4.5 ± 0.8 h
same,Maximum plasma concentration at 800 mg compared with 1600 mg,"[3]; once daily after meal, FIG. 3",close to the plasma concentration of 1600 mg Icaritin
same,Tolerability in patients with advanced malignancies,[4],well tolerated
same,Dose tolerated toxicity,[4]; this phase of clinical trial,no dose tolerated toxicity was found
same,"Best response PD, patients (%)",HCC patients; [5],4 (40%) patients (%)
same,"Best response PR, patients (%)",HCC patients; [5],1 (10%) patients (%)
same,"Best response SD, patients (%)",HCC patients; [5],5 (50%) patients (%)
same,"Best response PD, patients (%)",HCC patients; [6],3 (60%) patients (%)
same,"Best response PR, patients",HCC patients; [6],0 patients
same,"Best response SD, patients",HCC patients; [6],0 patients
same,Median OS of HCC patients,"HCC patients; Phase Ib, 17 patients analyzed, 95% CI:32-265, FIG. 7",113 days
same,Median TTP of HCC patients,"HCC patients; Phase Ib, FIG. 6",112 days
same,"AFP of HCC patient, as treatment progressed","HCC patients; after decrease under treatment, FIG. 5",3.53 ng/mL
same,"Abdominal lymph nodes, B-mode ultrasound image of an HCC patient","HCC patients; after eight months of treatment, FIG. 4a/4b",complete disappearance of abdominal lymph nodes
same,"AFP of HCC patient, start value","HCC patients; before the decrease, FIG. 5",5216 ng/mL
same,Efficacy in hepatocellular cancer,HCC patients; overall conclusion,promising efficacy
